Experimental data reported in patent US20150299250A1, “MACROCYCLIC COMPOUNDS AND USES THEREOF” (ADELAIDE RESEARCH & INNOVATION PTY LTD, priority 2012, published 2015).
Where two headings read alike, the source gives them in different places. Where a SMILES comes first, the peptide text is derived from it. The star is where a group is joined. Cbz = O=C(OCc1ccccc1)*

How the values were obtained:
[1] = tested on: panel of sarcoma cell lines (WE-68, VH-64, STA-ET-1, TC-252); assay: Cell viability assay, panel of four sarcoma cell lines (average); assay type: cell-based; settings: for IC50: average of four sarcoma cell lines, read-out: Average IC50 for cancer cell lines; for Therapeutic window: fold change in potency (IC50) against cancer cell line versus normal cell line
Description: (§1) Cell viability assays were performed as previously described. Briefly, cells were seeded in 96 well microtiterplates at a density of 3×10^4 cells per well in the presence of the indicated chemical. Cells were harvested 48 hours post-treatment, centrifuged at 1,300×g, washed in phosphate-buffered saline (PBS) and stained with 7AAD solution (2 μg/mL) (7-amino-actinomycin-D, Invitrogen, Carlsbad, Calif.) for 10 mins at room temperature. Viable cells were determined with the use of a FACS Calibur flow cytometer (Becton Dickinson Immunocytometry Systems), and analyzed with the use of FLOWJO (Tree Star, Inc) and GraphPad Prism (GraphPad Software Inc).
(§2) WE-68 and VH-64 Ewing's sarcoma cells were kindly supplied by F. van Valen (Department of Orthopaedic Surgery, Westfalische-Wilhelms-University, Germany).TC-252 and STA-ET-1 Ewing's sarcoma cells were kindly provided by G. Hamilton (Department of Surgery, University of Vienna, Austria) or P. Ambros (Children's Cancer Research Institute, St Anna Children's Hospital, Vienna, Austria). Primary human embryonic fibroblasts or primary human osteoblasts were collected from the Women's and Children's Hospital (North Adelaide, South Australia, Australia) or Royal Adelaide Hospital with patient consent. Mouse Embryonic Fibroblasts (MEFs) and its p53-null derivative were kindly supplied by Guillermina Lozano (Department of Genetics, Anderson Cancer Centre, University of Texas, Houston, Tex., USA). WE-68 cell lines were grown in RPMI-1640 media, whilst human embryonic fibroblasts and MEFs were grown in Dulbecco's Modified Eagle's Medium (DMEM). Media was supplemented with 10% FCS, 1% PSG and 10 mM HEPES. All cells were maintained at 37° C. in a humidified atmosphere of 5% CO2.

[2] = tested on: MEF p53+/+ (mouse embryonic fibroblasts); assay: Cell viability assay, MEF p53+/+; assay type: cell-based
Source text: Although proteasome inhibitors have been translated from the bench to the clinic over the past decade, their specific mechanisms of action remain poorly understood. As discussed earlier, proteasomal over-activity in tumor cells has been attributed to aberrant degradation of numerous critical cancer-related pro proteins, including the pro-apoptotic tumor suppressor, p53. However, the role of p53 as a downstream mediator of cell death in response to proteasomal inhibition remains unclear. Therefore, we used our small library of CT-L specific proteasome inhibitors (compounds 1-6) to determine the role of p53 in their mechanism of cytotoxic action. For this purpose, we utilized mouse embryonic fibroblasts (MEFs) from transgenic p53^+/+ and p53^−/− littermates. This isogenic pair of cell lines are either competent (MEF p53^+/+) or deficient (MEF p53^−/−) in p53 protein and are used here to assess a potential role for p53 as a downstream inducer of cell death in response to proteasomal inhibition.
as §1, §2

[3] = tested on: primary human embryonic fibroblasts; assay: Cell viability assay (7AAD, 48 hours), normal fibroblasts; assay type: cell-based; settings: Fibroblast, 48 hours exposure, read-out: Normal cell lines IC50 (μM) Fibroblasts
Description: as §1, §2

[4] = target: T1, 20S proteasome chymotrypsin-like (CT-L) activity (Oryctolagus cuniculus, UniProt G1T4Q9); assay: In vitro proteasome activity assay, CT-L (Suc-LLVY-AMC); assay type: biochemical, rabbit; settings: for IC50: purified 20S proteasome
T1 sequence (G1T4Q9 1-263): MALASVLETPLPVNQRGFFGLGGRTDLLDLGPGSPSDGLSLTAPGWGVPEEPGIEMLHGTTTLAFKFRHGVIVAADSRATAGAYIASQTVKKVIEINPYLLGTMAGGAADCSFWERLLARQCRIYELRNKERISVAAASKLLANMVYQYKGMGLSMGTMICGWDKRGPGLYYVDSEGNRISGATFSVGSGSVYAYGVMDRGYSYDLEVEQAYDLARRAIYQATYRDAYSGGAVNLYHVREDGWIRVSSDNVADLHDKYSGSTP
Description: (§3) The assays were performed in vitro using purified 20S proteasome/inhibitor mixtures, with the activity of each subunit of the proteasome assessed upon incubation with its respective target peptide.
(§4) Purified rabbit 20S proteasome and fluorogenic CT-L substrate (Suc-LLVY-AMC) were purchased from Boston Biochem (Cambridge, Mass., USA). The T-L and CP-L fluorogenic substrates (Ac-RLR-AMC and Z-nLPnLD-AMC) were purchased from Enzo Life Sciences (Farmingdale, N.Y., USA). The 20S proteasome was diluted to 0.2 μg/μL in 20S proteasome buffer (50 mM HEPES pH 7.6, 150 mM NaCl and 1 mM DDT) and stored at −80° C. Purified 20S proteasome (8 ng) was pre-incubated with the indicated concentrations of inhibitors for 15 minutes and subsequently added to the AMC-labeled substrate peptide (50 μM) in assay buffer (25 mM HEPES, pH 7.5, 0.5 mM EDTA, 0.05% NP-40, and 0.001% SDS (w/v)) at 37° C. for 2 hours.

[5] = target: T2, 20S proteasome T-L activity (Oryctolagus cuniculus, UniProt G1SWK8); assay: In vitro proteasome activity assay, T-L (Ac-RLR-AMC); assay type: biochemical, rabbit; settings: purified 20S proteasome; highest concentration tested 25,000 nM
T2 construct: purchased Boston Biochem
T2 sequence (G1SWK8 1-271): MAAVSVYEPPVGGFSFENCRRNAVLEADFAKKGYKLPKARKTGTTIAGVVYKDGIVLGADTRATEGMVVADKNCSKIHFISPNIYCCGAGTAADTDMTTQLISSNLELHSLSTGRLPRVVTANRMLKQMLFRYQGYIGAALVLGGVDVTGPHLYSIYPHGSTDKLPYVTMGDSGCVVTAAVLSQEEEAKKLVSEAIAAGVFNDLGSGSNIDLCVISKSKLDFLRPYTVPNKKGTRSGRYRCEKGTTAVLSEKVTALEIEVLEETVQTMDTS
Description: as §3, §4

[6] = Mus musculus, Fibroblast; read-out: IC50 in MEF p53+/+

| SMILES | IC50 [1] | Therapeutic window [1] | IC50 [2, 6] | IC50 [3] | IC50 [4] | IC50 [5] | increase in potency against CT-L relative to compound 4 (Leu at P2) [4] | MEF p53+/+ more sensitive compared to MEF p53-/- [2] | IC50 ([2]; Mus musculus, Fibroblast, read-out: IC50 in MEF p53+/+) | more potency against cancer cells over normal cells [1] |
| --- | --- | --- | --- | --- | --- | --- | --- | --- | --- | --- |
| C#CCOc1ccc(C[C@@H](C=O)NC(=O)[C@H](CC(C)C)NC(=O)[C@H](CCCCN=[N+]=[N-])NC(=O)OCc2ccccc2)cc1 [Compound 4] | 4.2 µM | ×5.9 | 2.7 to 10.3 µM | 39.5 µM | 150 nM | > 25000 nM | – | – | – | – |
| C#CCOc1ccc(C[C@@H](C=O)NC(=O)[C@H](CC(C)C)NC(=O)[C@H](CCN=[N+]=[N-])NC(=O)OCc2ccccc2)cc1 [Compound 2] | 4.3 µM | ×5.0 | 2.7 to 10.3 µM | 29.4 µM | 355 nM | > 25000 nM | – | – | – | – |
| C#CCOc1ccc(C[C@@H](C=O)NC(=O)[C@H](CC(C)C)NC(=O)[C@H](CCCN=[N+]=[N-])NC(=O)OCc2ccccc2)cc1 [Compound 3] | 1.6 µM | ×8.7 | 2.7 to 10.3 µM | 8.8 µM | 54 nM | > 25000 nM | – | – | – | – |
| C#CCOc1ccc(C[C@@H](C=O)NC(=O)[C@@H](NC(=O)[C@H](CCCCN=[N+]=[N-])NC(=O)OCc2ccccc2)[C@@H](C)CC)cc1 [Compound 5] | 0.88 µM | ×14.1 | 2.7 to 10.3 µM | 19.9 µM | 21 nM | > 25000 nM | 7.5 fold | – | – | – |
| CC(C)C[C@@H](C=O)NC(=O)[C@H](CC(C)C)NC(=O)[C@H](CC(C)C)NC(=O)OCc1ccccc1 [MG132, reference compound] (Cbz-Leu-Leu-Leu-aldehyde) | 0.61 µM | ×4.5 | – | 2.8 µM | 1.2 nM | 2000 nM | – | over 2 fold | 0.41 µM | – |
| C#CCOc1ccc(C[C@@H](C=O)NC(=O)[C@H](CC(C)C)NC(=O)[C@H](Cc2ccc(N=[N+]=[N-])cc2)NC(=O)OCc2ccccc2)cc1 [Compound 6] | 1.5 µM | ×19.0 | 2.7 to 10.3 µM | 45.4 µM | 23 nM | > 25000 nM | – | – | – | 19 fold |
